Assay [1] concerns the target T1, central cholecystokinin receptor: CCK-B (Cavia porcellus, UniProt H0VZC5).
T1 construct: guinea-pig brain membranes; from tissue; host or cells: brain membranes of male guinea pigs (animals from COBLABO)
T1 sequence (H0VZC5 1-426): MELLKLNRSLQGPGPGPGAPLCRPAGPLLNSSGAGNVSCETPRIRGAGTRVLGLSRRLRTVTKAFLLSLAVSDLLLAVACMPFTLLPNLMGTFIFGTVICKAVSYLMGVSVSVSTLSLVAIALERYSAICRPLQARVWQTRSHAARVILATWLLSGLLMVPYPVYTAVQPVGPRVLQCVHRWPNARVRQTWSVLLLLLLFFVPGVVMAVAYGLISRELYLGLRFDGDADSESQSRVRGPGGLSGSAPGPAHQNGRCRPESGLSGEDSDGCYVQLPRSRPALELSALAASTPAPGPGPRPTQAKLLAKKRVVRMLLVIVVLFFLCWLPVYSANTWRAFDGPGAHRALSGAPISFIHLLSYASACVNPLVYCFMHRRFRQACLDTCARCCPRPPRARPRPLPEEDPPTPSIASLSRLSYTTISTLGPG
The assay is described as follows: Binding affinity for the central cholecystokinin receptor (CCK B), guinea-pig brain membranes, inhibition of labelled [125I]-CCK8 sulphate binding. The source says: (§1) The "in vitro" studies consisted in determining the binding affinity of the compounds of the invention for the cholecystokinin and gastrin receptors. […]
(§2) guinea-pig brain membranes (males, COBLABO, 325-350 g) (central cholecystokinin receptor: CCK-B).
(§3) in accordance with the experimental protocol described by INNIS, R. B. and S. M. SNYDER, Eur. J. Pharmacol., 1980 65 123-124.
(§4) The unit of measurement is the nanomole.

Assay [2] has as its target T2, gastrin receptor (Cavia porcellus, UniProt H0VZC5).
T2 construct: guinea-pig gastric glands; from tissue; host or cells: gastric glands of male guinea pigs (animals from COB LABO)
T2 sequence (H0VZC5 1-426): T1 sequence (H0VZC5 1-426)
Put plainly: Binding affinity for the gastrin receptor, guinea-pig gastric glands, iodine-125-labelled gastrin.
Text: (§5) The "in vitro" studies consisted in determining the binding affinity of the compounds of the invention for the cholecystokinin and gastrin receptors.
(§6) The aim of these experiments was to determine the solution concentrations of products of formula (I) which were capable of inhibiting in relation to the receptors in question fifty percent of the cholecystokinin bonds, labelled with […] (abbreviated below as [1251]-CCK8 sulphate) or in the case of the iodine-125-labelled gastrin receptor with the following receptors:
(§7) guinea-pig gastric glands (males, COB LABO, 325-350 g) in accordance with the method described by PRAISSMAN, M., M. E. WALDEN and C. PELLECHIA. Journal of Receptor Research, 1983 3 647-665 (gastrin receptor).
as §4

Assay [3] addresses T3, peripheral cholecystokinin receptor: CCK-A (Rattus norvegicus, UniProt P30551).
T3 construct: plasma membranes of the rat pancreas; from tissue; host or cells: pancreas plasma membranes of male SD rats (animals from IFFA CREDO)
T3 sequence (P30551 1-444): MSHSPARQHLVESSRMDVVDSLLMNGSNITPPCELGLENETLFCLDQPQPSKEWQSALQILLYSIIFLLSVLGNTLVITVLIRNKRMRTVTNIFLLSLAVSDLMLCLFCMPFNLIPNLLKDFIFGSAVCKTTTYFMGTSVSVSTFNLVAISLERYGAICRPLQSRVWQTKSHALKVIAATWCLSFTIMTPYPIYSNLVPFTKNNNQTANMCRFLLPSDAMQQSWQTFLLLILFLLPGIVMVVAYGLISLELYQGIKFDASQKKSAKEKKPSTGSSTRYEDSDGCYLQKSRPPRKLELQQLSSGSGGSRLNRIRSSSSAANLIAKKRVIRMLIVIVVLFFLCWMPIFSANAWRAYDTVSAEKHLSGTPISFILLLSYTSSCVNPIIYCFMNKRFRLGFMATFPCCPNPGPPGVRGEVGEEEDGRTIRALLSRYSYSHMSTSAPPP
The assay is described as follows: Binding affinity for the peripheral cholecystokinin receptor (CCK A), plasma membranes of the rat pancreas, inhibition of labelled [125I]-CCK8 sulphate binding.
Text: as §5, §6
plasma membranes of the rat pancreas (male SD, rats, IFFA CREDO 200-225 g) (peripheral cholecystokinin receptor: CCK-A),
as §3, §4

Assay [4] has as its system gastric evacuation, slowed down by CCK-8 (peripheral receptor CCK-A). The assay is described as follows: Gastric evacuation slowed down by CCK-8 in the mouse. Format: in vivo. Conditions: oral; for ED50: Mus musculus, SWISS male mice, CCK-8 80 μg/kg subcutaneous. The method, then: The antagonist activity of CCK on the digestive motor effects of the hormone has been examined in relation to the gastric evacuation, slowed down by the subcutaneous administration of CCK-8 (80 μg/kg) in SWISS male mice (IFFA CREDO 16-20 g), using the technique described by Lotti, V. J., D. J. Cerino, P. J. Kling and R. S. L. Chang. Life Sciences, 1986 39, 1631-1638.

Assay [5] deals with gastrin-induced acid secretion. The assay is described as follows: Gastrin-induced acid secretion in the rat (chronic gastric fistula, pentagastrin perfusion). Format: in vivo. Conditions: 1 mg/kg oral; for Gastric secretion % inhibition: SD male rat, pentagastrin 6 μg/kg/h i.v. Here is the method:
The activity of the products of the invention in relation to gastrin-induced acid secretion in the rat has been studied by the method described by Pascaud, X. P. , A. R. Roger and M. J. H. Genton. Digestion, […] 16 57-68. The method consists in collecting the gastric acid secretion over two consecutive 2 hour periods in SD male rats (IFFA CREDO 250-300 g), provided with a chronic gastric fistula and continuously perfused i.v. with a pentagastrin solution (Peptavlon, ICI, 6 μg/kg/h). The inhibition of this secretion by the oral administration of 1 mg/kg product of the invention has been determined.

Assay [6] has as its system central cholecystokinin receptor: CCK-B. Put plainly: Binding affinity for the central cholecystokinin receptor (CCK B), guinea-pig brain membranes, inhibition of labelled [125I]-CCK8 sulphate binding. Conditions: for Selectivity CCK B/CCK A: IC50 CCK A / IC50 CCK B.
Text: as §1, §2, §3, §4

The test system of assay [7] is gastrin receptor. Put plainly: Binding affinity for the gastrin receptor, guinea-pig gastric glands, iodine-125-labelled gastrin. Conditions: for Selectivity GASTRIN/CCK A: IC50 CCK A / IC50 gastrin.
Text: as §5, §6, §7, §4

The subject of the next assay is gastrin receptors. Conditions: published, in vitro, cited from earlier work.
For assay [8], the system named is A receptors of cholecystokinin. The settings on record: published, in vitro; cited from earlier work.
Setting [9] is: guinea-pig brain membranes; Table I; read-out: IC50 Receptor bond CCK B.
Setting [10] is: guinea-pig gastric glands; Table I; read-out: IC50 Receptor bond Gastrin.
Where [11] appears, read: in comparison with compound XXa.

Read-outs that look alike come from different tables or passages of the source.

As for `Cc1cccc(NC(=O)NC2N=C(c3ccccc3)c3cccc4c3N(CC4)C2=O)c1` (racemic) [Example 1, (4R,S)-N-(keto-3-phenyl-6-tetrahydro-1,2,3,4-pyrrolo[3,2,1-j,k]benzodiazepine[1,4]-yl-4)-N'-(methyl-3-phenyl-)-urea], the figures for the IC50 (in assay [1] (setting [9]); on gastrin receptor [2] (setting [10]); in assay [3]) were 431 nM, 14.4 nM and 59.6 nM, respectively.
In the case of `Cc1cccc(NC(=O)NC2N=C(c3ccccc3)c3cccc4c3N(CCC4)C2=O)c1` (racemic) [Example 5, (5R,S)-N-(keto-4-phenyl-7-hexahydro-1,2,3,3a,4,5-pyrido [3,2,1-j,k]benzodiazepine-[1,4]-yl-5)-N'-(methyl-3-phenyl-)-urea], the values for the IC50 (in assay [1] (setting [9]); at gastrin receptor [2] (setting [10]); in assay [3]) were 251 nM, 1.5 nM and 84.2 nM, respectively. Also, the “times less active on the gastrin receptor than XXa” value (from here on “times less active”) at gastrin receptor [2] (setting [11]) is recorded as 3 times. Besides, the “activity compared with reference compound XXa (gastrin-specific compounds)” value at gastrin receptor [2] (in words) was “similar”.
For the compound `O=C(Nc1ccc([N+](=O)[O-])cc1)NC1N=C(c2ccccc2)c2cccc3c2N(CCC3)C1=O` (racemic) [Example 8, (5R,S)-N-(keto-4-phenyl-7-hexahydro-1,2,3,3a,4,5-pyrido[3,2,1-j,k]benzodiazepine-[1,4]-yl-5)-N'-(nitro-4-phenyl-)-urea], the half-inhibitory concentration (IC50) in assay [1] (setting [9]) turned out to be 1810 nM; on gastrin receptor [2] (setting [10]), 60 nM; in assay [3] it was 3080 nM.
In the case of `O=C1C(NC(=S)Nc2ccc(Br)cc2)N=C(c2ccccc2)c2cccc3c2N1CCC3` (racemic) [Example 10, (5R,S)-N-(keto-4-phenyl-7-hexahydro-1,2,3,3a,4,5-pyrido[3,2,1-j-k]benzodiazepine-[1,4]-yl-5)-N'-(bromo-4-phenyl-)-thiourea], the IC50 in assay [1] (setting [9]) was 88 nM; at gastrin receptor [2] (setting [10]) it was 3.2 nM; in assay [3], 3040 nM. Also, at gastrin receptor [2] (setting [11]), the “times less active” value came to 1.5 times. For the same compound, on gastrin receptor [2] (in words), the “activity compared with reference compound XXa (gastrin-specific compounds)” value is “similar”. Moreover, it took a dose of 15.5 mg/kg to reach the 50% effect level in assay [4] (ED50). In assay [4] (in comparison with XXa), the “times more product required than XXa for 50% reduction of the inhibiting effects of CCK-8 on gastric evacuation” value was 100 times. The “Gastric secretion % inhibition” value in assay [5] is recorded as 31%. For the same compound, the “inhibiting activity on gastrin-induced acid secretion compared with XXa” value in assay [5] (in words) is “identical”.
Take `O=C(Nc1cnc2ccccc2c1)NC1N=C(c2ccccc2)c2cccc3c2N(CCC3)C1=O` (racemic) [Example 23, (5R,S)-N-(keto-4-phenyl-7-hexahydro-1,2,3,3a,4,5-pyrido[3,2,1-j,k]benzodiazepine[1,4]-yl-5)-N'-(quinolinyl-3-)-urea]: in assay [6] (setting [11]), the “higher selectivity for the CCK B receptor than XXa” value is approximately 30 times. Further, the IC50 in assay [1] (setting [9]) amounted to 176 nM; on gastrin receptor [2] (setting [10]) it was 298 nM; in assay [3] it was 389 nM. Besides, the “factor less active on the CCK B receptor than XXa” value in assay [1] (setting [11]) is given as 2 factor. Besides, the “times less active” value at gastrin receptor [2] (setting [11]) is recorded as approximately 60 times.
With `O=C1C(NC(=S)Nc2ccc(Br)cc2)N=C(c2ccccc2)c2cccc3c2N1CCC3` (stereo in doubt) [Example 26, (5S)-N-(keto-4-phenyl-7-hexahydro-1,2,3,3a,4,5-pyrido[3,2,1-j,k]benzodiazepine[1,4]-yl-4)-N'-(bromo-4-phenyl-)-thiourea], in assay [6], the “Selectivity CCK B/CCK A” value is given as more than 70. Besides, the IC50 in assay [1] (setting [9]) is 137 nM; on gastrin receptor [2] (setting [10]), 36 nM; in assay [3], more than 10000 nM. Moreover, in the assay with gastrin receptor [7], the “Selectivity GASTRIN/CCK A” value is more than 250.
For `Cc1cccc(NC(=O)N[C@@H]2N=C(c3ccccc3)c3cccc4c3N(CC4)C2=O)c1` [Example 2, (4R)-N-(keto-3-phenyl-6-tetrahydro-1,2,3,4-pyrrolo[3,2,1-j,k]benzodiazepine-[1,4]-yl-4)-N'-(methyl-3-phenyl-)-urea], the IC50 came to 99.9 nM in assay [1] (setting [9]), 85.9 nM on gastrin receptor [2] (setting [10]) and 1020 nM in assay [3]. In assay [1] (in words), the “activity on the CCK B receptor compared with XXa” value is “of the same order”. On gastrin receptor [2] (setting [11]), the “times less active” value is listed as 20 times. For the same compound, in assay [3] (in words), the “activity on the CCK A receptor compared with XXa” value is “of the same order”.
`Cc1cccc(NC(=O)N[C@@H]2N=C(c3ccccc3)c3cccc4c3N(CCC4)C2=O)c1` [Example 7, (+)-(5R)-N-(keto-4-phenyl-7-hexahdyro-1,2,3,3a,4,5-pyrido [3,2,1-j,k]benzodiazepine[1,4]-yl-5)-N'-(methyl-3-phenyl-)-urea]: the results for the concentration for half-maximal inhibition (IC50) (in assay [1] (setting [9]); on gastrin receptor [2] (setting [10]); in assay [3]) were 255 nM, 40.5 nM and 1730 nM, respectively.
In the case of `Cc1cccc(NC(=O)N[C@@H]2N=C(c3ccccc3)c3ccccc3N(C)C2=O)c1` [XXa, reference compound], the “Selectivity CCK B/CCK A” value in assay [6] is 17. In addition, the concentration for half-maximal inhibition (IC50) in [1] (read-out: IC50 Receptor bond CCK B; guinea-pig brain membranes; Table I) turned out to be 81.4 nM; on gastrin receptor [2] (read-out: IC50 Receptor bond Gastrin; guinea-pig gastric glands; Table I), 4.7 nM; in [3] (rat pancreas plasma membranes, Table I, read-out: IC50 Receptor bond CCK A) it was 1420 nM. The “Selectivity GASTRIN/CCK A” value in the assay on gastrin receptor [7] was 302. In the assay with gastrin receptor [7] (ratio 1419/4.7), the “CCK-A/gastrin activity ratio reproduced by the Applicant (times more favourable to gastrin receptors)” value is on record as “about 300 times”. For the same compound, in the assay on gastrin receptors, the “gastrin activity, term of the CCK-A/gastrin ratio” value is reported as 1.9. Further, the “CCK-A/gastrin activity ratio (times more favourable to gastrin receptors)” value with gastrin receptors (ratio 290/1.9) is on record as “about 150 times”. In assay [4], this compound came in with an ED50 of 0.15 mg/kg. Moreover, in assay [8], the “CCK-A activity, term of the CCK-A/gastrin ratio” value was 290. Moreover, in assay [5], the “Gastric secretion % inhibition” value was 29%.

Broadly, the IC50 is the concentration that gives 50% inhibition. The ED50 is the dose at which the effect has come halfway, by size or by number of responders.
